Consider 17 molecules from PubChem BioAssay AID330 (DTP/NCI, 2004).

SMILES strings stand for the structures. “And” between values parts separate entries of the source, which are not always exact repeats. Equal values may be shown once. Inconclusive results and toxic doses are left out.

The subject of this test is P388 leukemia ip, CD2F1 mice, survival T/C. Put plainly: NCI In Vivo Anticancer Drug Screen. Data for tumor model P388 Leukemia (intraperitoneal) in CD2F1 (CDF1) mice. The conditions noted are these: endpoint: median survival time, higher = longer survival. The gist of the method: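 Mice carrying the transplanted tumor received test compound or vehicle. Survival was recorded in each group, and the value is the treated-group measurement divided by that of the vehicle-treated control group.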

Setting [1] is: dose: 100.0 mg/kg/injection, schedule: Q01DX005 (ip), vehicle: saline with Tween-80.
[2] abbreviates: dose: 200.0 mg/kg/injection, schedule: Q01DX005 (ip), vehicle: saline with Tween-80.
Setting [3] is: dose: 50.0 mg/kg/injection, schedule: Q01DX005 (ip), vehicle: saline with Tween-80.
The mark [4] stands for this setting: dose: 50.0 mg/kg/injection, schedule: Q01DX009 (ip), vehicle: saline with Tween-80.
The mark [5] stands for this setting: dose: 100.0 mg/kg/injection, schedule: Q01DX009 (ip), vehicle: saline with Tween-80.
Where [6] appears, read: dose: 200.0 mg/kg/injection, schedule: Q01DX009 (ip), vehicle: saline with Tween-80.
The mark [7] stands for this setting: dose: 50.0 mg/kg/injection, schedule: Q01DX005 (ip), vehicle: Klucel (hydroxypropylcellulose) (HPC).
[8] abbreviates: dose: 100.0 mg/kg/injection, schedule: Q01DX005 (ip), vehicle: Klucel (hydroxypropylcellulose) (HPC).
[9] abbreviates: dose: 200.0 mg/kg/injection, schedule: Q01DX005 (ip), vehicle: Klucel (hydroxypropylcellulose) (HPC).

As to `CCc1c(CO)c(CO)c(-c2ccccc2)n1CCn1c(CC)c(CO)c(CO)c1-c1ccccc1`, the T/C was 96 % of control (dose: 100.0 mg/kg/injection, schedule: Q01DX001 (ip), vehicle: saline with Tween-80); 88 % of control (dose: 200.0 mg/kg/injection, schedule: Q01DX001 (ip), vehicle: saline with Tween-80); 96 % of control (dose: 400.0 mg/kg/injection, schedule: Q01DX001 (ip), vehicle: saline with Tween-80).

Take `Cn1nnc2c(C(N)=O)ncn2c1=O`: the T/C by setting is: (dose: 25.0 mg/kg/injection, schedule: Q01DX005 (ip), vehicle: saline with Tween-80) 118 % of control; (dose: 25.0 mg/kg/injection, schedule: Q01DX005 (ip), vehicle: saline) 119 % of control and 121 % of control; under setting [1], 189 % of control; (dose: 100.0 mg/kg/injection, schedule: Q01DX005 (ip), vehicle: saline) 164 % of control and 217 % of control; under setting [2], 254 % of control; (dose: 200.0 mg/kg/injection, schedule: Q01DX005 (ip), vehicle: saline) 225 % of control and 87 % of control.

Turning to `CC1(C)CC(OP(=S)(N2CC2)N2CC2)CC(C)(C)N1O`, the T/C was 160 % of control (dose: 100.0 mg/kg/injection, schedule: Q01DX001 (ip), vehicle: Klucel (hydroxypropylcellulose) (HPC)) and 187 % of control (dose: 400.0 mg/kg/injection, schedule: Q01DX001 (ip), vehicle: Klucel (hydroxypropylcellulose) (HPC)).

As to `C[Si](C)(C)N=S=N[Si](C)(C)C`, the T/C runs as follows: under setting [3], 101 % of control; under setting [1], 108 % of control.

For the molecule `OCCCOc1ccc(OCCCO)cc1`, the T/C by setting is: (dose: 60.0 mg/kg/injection, schedule: Q01DX005 (ip), vehicle: Klucel (hydroxypropylcellulose) (HPC)) 100 % of control; (dose: 120.0 mg/kg/injection, schedule: Q01DX005 (ip), vehicle: Klucel (hydroxypropylcellulose) (HPC)) 99 % of control; (dose: 240.0 mg/kg/injection, schedule: Q01DX005 (ip), vehicle: Klucel (hydroxypropylcellulose) (HPC)) 103 % of control.

For `Cc1ccnc(NC(N)=O)n1`, the T/C runs as follows: under setting [4], 103 % of control; under setting [5], 103 % of control; under setting [6], 101 % of control.

`[Cl][Pt+2][Cl].[NH-]C1CCC1.[NH2-]`: the T/C was 155 % of control and 167 % of control (dose: 1.5 mg/kg/injection, schedule: Q01DX005 (ip), vehicle: saline); 155 % of control and 189 % of control and 190 % of control (dose: 3.0 mg/kg/injection, schedule: Q01DX005 (ip), vehicle: saline); 214 % of control (dose: 12.0 mg/kg/injection, schedule: Q01DX005 (ip), vehicle: saline).

As to `Nc1c(Br)cc2c(c1Br)Cc1cc([N+](=O)[O-])ccc1-2`, the T/C by setting is: (dose: 31.3 mg/kg/injection, schedule: Q01DX010 (ip), vehicle: saline) 90 % of control; (dose: 62.5 mg/kg/injection, schedule: Q01DX010 (ip), vehicle: saline) 100 % of control; (dose: 125.0 mg/kg/injection, schedule: Q01DX010 (ip), vehicle: saline) 105 % of control; (dose: 250.0 mg/kg/injection, schedule: Q01DX010 (ip), vehicle: saline) 110 % of control.

As for `C/C(C(=O)NC1CC1)=C(\C)c1ccc(Br)cc1`, the T/C was 99 % of control (dose: 50.0 mg/kg/injection, schedule: Q04DX003 (ip), vehicle: Klucel (hydroxypropylcellulose) (HPC)); 99 % of control (dose: 100.0 mg/kg/injection, schedule: Q04DX003 (ip), vehicle: Klucel (hydroxypropylcellulose) (HPC)); 98 % of control (dose: 200.0 mg/kg/injection, schedule: Q04DX003 (ip), vehicle: Klucel (hydroxypropylcellulose) (HPC)).

On to `OCCN1CCSC1=S`, for which the T/C under setting [4] is 95 % of control, the T/C under setting [5] was 90 % of control and the T/C under setting [6] was 100 % of control.

Turning to `C[Si](C)(C)c1ccc2c(c1O)C(=O)c1ccccc1C2=O`, the T/C runs as follows: under setting [3], 100 % of control; under setting [1], 100 % of control; under setting [2], 102 % of control.

Take `Cc1cc(=O)oc2ccc3c(=O)ccoc3c12`: the T/C was 95 % of control (dose: 60.0 mg/kg/injection, schedule: Q01DX005 (ip), vehicle: saline with Tween-80); 96 % of control (dose: 120.0 mg/kg/injection, schedule: Q01DX005 (ip), vehicle: saline with Tween-80); 97 % of control (dose: 240.0 mg/kg/injection, schedule: Q01DX005 (ip), vehicle: saline with Tween-80).

In the case of `NC(=O)NC(CC(=O)O)C(=O)O` (stereo not drawn), the T/C under setting [4] was 92 % of control, the T/C under setting [5] was 101 % of control and the T/C under setting [6] was 106 % of control.

As for `CCCCC([Se])=NCCC(C)C`, the T/C by setting is: (dose: 6.25 mg/kg/injection, schedule: Q01DX009 (ip), vehicle: Klucel (hydroxypropylcellulose) (HPC)) 105 % of control; (dose: 12.5 mg/kg/injection, schedule: Q01DX009 (ip), vehicle: Klucel (hydroxypropylcellulose) (HPC)) 108 % of control; (dose: 25.0 mg/kg/injection, schedule: Q01DX009 (ip), vehicle: Klucel (hydroxypropylcellulose) (HPC)) 93 % of control.

As to `CCCN(CCC)C(=O)C(c1ccccc1)C1(O)CCCCC1` (stereo not drawn), the T/C reads like this: under setting [7], 100 % of control; under setting [8], 100 % of control; under setting [9], 97 % of control.

As to `O=C1NCCCN1C(=O)Nc1ccc(Cl)c(Cl)c1`, the T/C (dose: 50.0 mg/kg/injection, schedule: Q01DX009 (ip), vehicle: Klucel (hydroxypropylcellulose) (HPC)) is 101 % of control; the T/C (dose: 100.0 mg/kg/injection, schedule: Q01DX009 (ip), vehicle: Klucel (hydroxypropylcellulose) (HPC)) is 91 % of control; the T/C (dose: 200.0 mg/kg/injection, schedule: Q01DX009 (ip), vehicle: Klucel (hydroxypropylcellulose) (HPC)) is 95 % of control.

With `Cc1nc2c(cnn2C)c(=O)n1-c1ccccc1Cl`, the T/C by setting is: under setting [7], 103 % of control; under setting [8], 95 % of control; under setting [9], 98 % of control.
